According to patent US12404304B1, “Telomerase reverse transcriptase (TERT) expression enhancing compounds and methods for using the same” (Sierra Sciences, LLC, priority 2007, dated 2025):

System: viable cells in culture
Assay: Cell viability assay (CellTiter-Glo Luminescent Cell Viability Assay, ATP quantitation, percent of vehicle control)

Row | SMILES | Average Cell Viability after 24 Hours (% DMSO)
1 | CCC(=O)NC(c1ccc(N(C)C)cc1)c1ccc2cccnc2c1O (stereo not shown) [compound 1001] | 44.55 % DMSO
2 | Oc1c(CN2CCN(c3cccc(Cl)c3)CC2)cc(Br)c2cccnc12 [compound 1002] | 57.70 % DMSO
3 | CN1CCN(Cc2cc(COCc3ccccc3)c3cccnc3c2O)CC1 [compound 1003] | 73.53 % DMSO
4 | Oc1c(C(Nc2ccccn2)c2ccc(OC3CCCC3)cc2)ccc2cccnc12 (stereo not shown) [compound 1004] | 54.71 % DMSO
5 | COc1cc(C(Nc2ccccn2)c2ccc3cccnc3c2O)cc(Br)c1OC (stereo not shown) [compound 1005] | 64.80 % DMSO
6 | Oc1c(C(Nc2ccccn2)c2cccc(Cl)c2Cl)ccc2cccnc12 (stereo not shown) [compound 1006] | 69.78 % DMSO
7 | Oc1c(C(Nc2ccccn2)c2ccccc2Br)ccc2cccnc12 (stereo not shown) [compound 1007] | 68.00 % DMSO
8 | COC(=O)c1ccc(C(Nc2cc(C)ccn2)c2ccc3ccc(C)nc3c2O)cc1 (stereo not shown) [compound 1008] | 67.58 % DMSO
9 | Oc1c(C(Nc2ccccn2)c2c(Cl)cccc2Cl)ccc2cccnc12 (stereo not shown) [compound 1009] | 68.59 % DMSO
10 | CCN(CC)c1ccc(C(NC(=O)C(C)C)c2cc(Cl)c3cccnc3c2O)cc1 (stereo not shown) [compound 1011] | 64.50 % DMSO
11 | COc1ccc(C(=O)NC(c2ccco2)c2cc(Cl)c3cccnc3c2O)cc1 (stereo not shown) [compound 1012] | 60.73 % DMSO
12 | COc1cccc(C(=O)NC(c2ccc(OC)c(OC)c2)c2cc(Cl)c3cccnc3c2O)c1 (stereo not shown) [compound 1013] | 74.96 % DMSO
13 | COc1ccc(C(=O)NC(c2ccc(Cl)cc2)c2cc(Cl)c3cccnc3c2O)cc1 (stereo not shown) [compound 1014] | 28.33 % DMSO
14 | O=C(COc1ccccc1)NC(/C=C/c1ccccc1)c1cc(Cl)c2cccnc2c1O (stereo not shown) [compound 1015] | 74.68 % DMSO
15 | COc1ccc(C(=O)NC(/C=C/c2ccccc2)c2cc(Cl)c3cccnc3c2O)cc1 (stereo not shown) [compound 1016] | 42.84 % DMSO
16 | COc1cccc(C(=O)NC(/C=C/c2ccccc2)c2cc(Cl)c3cccnc3c2O)c1 (stereo not shown) [compound 1017] | 75.48 % DMSO
17 | Oc1c(I)cc(I)c2cccnc12 [compound 1018] | 56.90 % DMSO
18 | Oc1c(Br)cc(Br)c2cccnc12 [compound 1019] | 35.74 % DMSO
19 | Oc1c(Cl)cc(Cl)c2cccnc12 [compound 1020] | 25.10 % DMSO
20 | CC(=O)NC(c1ccc(Br)cc1)c1ccc2cccnc2c1O (stereo not shown) [compound 1022] | 63.83 % DMSO
21 | COc1ccc(C(NC(C)=O)c2ccc3cccnc3c2O)cc1OC (stereo not shown) [compound 1023] | 75.33 % DMSO
22 | CC(=O)NC(c1ccc(C)cc1)c1ccc2cccnc2c1O (stereo not shown) [compound 1024] | 95.15 % DMSO
23 | CC(=O)NC(c1ccccc1Cl)c1ccc2cccnc2c1O (stereo not shown) [compound 1025] | 93.50 % DMSO
24 | CCCCC(=O)NC(c1ccccc1OC)c1cc([N+](=O)[O-])c2cccnc2c1O (stereo not shown) [compound 1027] | 62.71 % DMSO

Row | SMILES | Average Cell Viability after 24 Hours (% DMSO)
25 | O=[N+]([O-])c1cc(CN2CCN(c3ccccc3)CC2)c(O)c2ncccc12 [compound 1029] | 32.00 % DMSO
26 | CC(=O)NC(c1ccc(C(C)C)cc1)c1ccc2cccnc2c1O (stereo not shown) [compound 1030] | 73.78 % DMSO
27 | CCCCC(=O)NC(c1ccccc1Cl)c1cc([N+](=O)[O-])c2cccnc2c1O (stereo not shown) [compound 1031] | 76.88 % DMSO
28 | CCC(=O)NC(c1ccc(OC)c(OC)c1)c1cc(Cl)c2cccnc2c1O (stereo not shown) [compound 1032] | 75.67 % DMSO
29 | CCOc1cc(C(NC(C)=O)c2cc([N+](=O)[O-])c3cccnc3c2O)ccc1O (stereo not shown) [compound 1033] | 84.43 % DMSO
30 | CC(=O)NC(c1ccco1)c1cc([N+](=O)[O-])c2cccnc2c1O (stereo not shown) [compound 1034] | 83.39 % DMSO
31 | CCC(=O)NC(/C=C/c1ccccc1)c1cc([N+](=O)[O-])c2cccnc2c1O (stereo not shown) [compound 1035] | 62.45 % DMSO
32 | CCCC(=O)NC(c1ccc(O)c(OCC)c1)c1cc([N+](=O)[O-])c2cccnc2c1O (stereo not shown) [compound 1036] | 73.28 % DMSO
33 | CC(=O)NC(c1ccc(Cl)cc1)c1cc([N+](=O)[O-])c2cccnc2c1O (stereo not shown) [compound 1037] | 67.96 % DMSO
34 | CCC(=O)NC(c1ccco1)c1cc(Cl)c2cccnc2c1O (stereo not shown) [compound 1039] | 72.76 % DMSO
35 | CCCCC(=O)NC(c1ccc(OC)cc1)c1cc([N+](=O)[O-])c2cccnc2c1O (stereo not shown) [compound 1040] | 61.11 % DMSO
36 | CCC(=O)NC(c1ccccc1Cl)c1cc(Cl)c2cccnc2c1O (stereo not shown) [compound 1041] | 72.82 % DMSO
37 | CC(C)C(=O)NC(c1ccc(Cl)cc1Cl)c1ccc2cccnc2c1O (stereo not shown) [compound 1042] | 55.51 % DMSO
38 | CCC(=O)NC(c1ccccc1OC)c1cc(Cl)c2cccnc2c1O (stereo not shown) [compound 1043] | 47.47 % DMSO
39 | CCCC(=O)NC(c1ccc(Cl)cc1)c1cc([N+](=O)[O-])c2cccnc2c1O (stereo not shown) [compound 1044] | 85.35 % DMSO
40 | O=C(NC(c1ccc(Cl)cc1)c1ccc2cccnc2c1O)C1CCCCC1 (stereo not shown) [compound 1045] | 60.30 % DMSO
41 | CCCCC(=O)NC(c1ccc2c(c1)OCO2)c1cc([N+](=O)[O-])c2cccnc2c1O (stereo not shown) [compound 1046] | 78.00 % DMSO
42 | Cc1ccc(C(NC(=O)C2CCCCC2)c2ccc3cccnc3c2O)cc1 (stereo not shown) [compound 1047] | 69.78 % DMSO
43 | CCCC(=O)NC(c1cccs1)c1cc([N+](=O)[O-])c2cccnc2c1O (stereo not shown) [compound 1048] | 70.37 % DMSO
44 | CCC(=O)NC(c1ccc(C)cc1)c1cc([N+](=O)[O-])c2cccnc2c1O (stereo not shown) [compound 1049] | 65.63 % DMSO
45 | CC(=O)NC(c1ccccc1)c1cc([N+](=O)[O-])c2cccnc2c1O (stereo not shown) [compound 1050] | 62.77 % DMSO
46 | CCC(=O)NC(c1ccccc1OC)c1cc([N+](=O)[O-])c2cccnc2c1O (stereo not shown) [compound 1051] | 65.27 % DMSO
47 | CC(=O)NC(c1cccs1)c1cc(Cl)c2cccnc2c1O (stereo not shown) [compound 1052] | 60.80 % DMSO
48 | CCCCC(=O)NC(c1ccc(OC)c(OC)c1)c1cc([N+](=O)[O-])c2cccnc2c1O (stereo not shown) [compound 1053] | 59.77 % DMSO

Row | SMILES | Average Cell Viability after 24 Hours (% DMSO)
49 | CCCCC(=O)NC(c1ccc(Cl)cc1)c1cc([N+](=O)[O-])c2cccnc2c1O (stereo not shown) [compound 1054] | 46.45 % DMSO
50 | CCCCC(=O)NC(c1ccco1)c1cc([N+](=O)[O-])c2cccnc2c1O (stereo not shown) [compound 1055] | 57.43 % DMSO
51 | CCCC(=O)NC(c1ccc(C(C)C)cc1)c1cc([N+](=O)[O-])c2cccnc2c1O (stereo not shown) [compound 1056] | 65.75 % DMSO
52 | CC(=O)NC(c1ccc(C(C)C)cc1)c1cc(Cl)c2cccnc2c1O (stereo not shown) [compound 1057] | 50.02 % DMSO
53 | CC(=O)NC(c1cccs1)c1ccc2cccnc2c1O (stereo not shown) [compound 1058] | 69.11 % DMSO
54 | CCN(CC)c1ccc(C(NC(=O)C(C)C)c2ccc3cccnc3c2O)cc1 (stereo not shown) [compound 1060] | 63.44 % DMSO
55 | CCCCC(=O)NC(c1ccc(OC)cc1)c1cc(Cl)c2cccnc2c1O (stereo not shown) [compound 1061] | 62.27 % DMSO
56 | CC(C)C(=O)NC(c1ccc(C(C)C)cc1)c1cc(Cl)c2cccnc2c1O (stereo not shown) [compound 1062] | 60.77 % DMSO
57 | CCCCC(=O)NC(c1cccs1)c1cc([N+](=O)[O-])c2cccnc2c1O (stereo not shown) [compound 1063] | 85.12 % DMSO
58 | CC(C)C(=O)NC(c1ccc2c(c1)OCO2)c1cc([N+](=O)[O-])c2cccnc2c1O (stereo not shown) [compound 1064] | 67.37 % DMSO
59 | O=C(CCc1ccccc1)NC(c1ccc2c(c1)OCO2)c1ccc2cccnc2c1O (stereo not shown) [compound 1065] | 61.72 % DMSO
60 | CCCC(=O)NC(c1ccc(N(C)C)cc1)c1cc(Cl)c2cccnc2c1O (stereo not shown) [compound 1066] | 72.46 % DMSO
61 | CCCCC(=O)NC(c1cccs1)c1cc(Cl)c2cccnc2c1O (stereo not shown) [compound 1067] | 49.62 % DMSO
62 | O=C(NC(c1ccc2c(c1)OCO2)c1cc([N+](=O)[O-])c2cccnc2c1O)C1CCCCC1 (stereo not shown) [compound 1068] | 61.20 % DMSO
63 | CCCCC(=O)NC(/C=C/c1ccccc1)c1cc([N+](=O)[O-])c2cccnc2c1O (stereo not shown) [compound 1069] | 80.34 % DMSO
64 | CCCC(=O)NC(c1ccc(N(CC)CC)cc1)c1cc(Cl)c2cccnc2c1O (stereo not shown) [compound 1070] | 69.71 % DMSO
65 | CC(C)C(=O)NC(c1ccc(C(C)C)cc1)c1cc([N+](=O)[O-])c2cccnc2c1O (stereo not shown) [compound 1071] | 81.62 % DMSO
66 | COc1ccc(C(NC(=O)C2CCCCC2)c2cc([N+](=O)[O-])c3cccnc3c2O)cc1OC (stereo not shown) [compound 1072] | 78.35 % DMSO
67 | COc1ccc(C(NC(=O)C(C)C)c2cc([N+](=O)[O-])c3cccnc3c2O)cc1 (stereo not shown) [compound 1073] | 80.10 % DMSO
68 | CCC(=O)NC(c1ccccc1Cl)c1cc([N+](=O)[O-])c2cccnc2c1O (stereo not shown) [compound 1074] | 75.55 % DMSO
69 | CCCC(=O)NC(c1ccco1)c1cc(Cl)c2cccnc2c1O (stereo not shown) [compound 1077] | 38.99 % DMSO
70 | Cc1ccc2ccc(C(Nc3ccccn3)c3cccc([N+](=O)[O-])c3)c(O)c2n1 (stereo not shown) [compound 1078] | 67.66 % DMSO
